Test results published in patent US20260215426A1, “HERBICIDAL COMPOSITIONS” (SYNGENTA CROP PROTECTION AG, priority 2022, published 2026).

Columns and labels:
Type in all cases: in vivo
[1] = test system: Alopecurus myosuroides (ALOMY); experiment: Post-emergence glasshouse efficacy against Alopecurus myosuroides; details: 14 days
Source text: (§1) When active ingredients are combined, the activity to be expected (E) for any given active ingredient combination obeys the so-called Colby Formula and can be calculated as follows (Colby, S. R., Calculating synergistic and antagonistic responses of herbicide combination, Weeds, Vol. 15, pages 20-22; 1967): • ppm=milligrams of active ingredient (a.i.) per liter • X=% action by first active ingredient using p ppm of the active ingredient • Y=% action by second active ingredient sing q ppm of the active ingredient.
(§2) According to Colby, the expected action of active ingredients A+B using p+q ppm of active ingredient is represented by the following formula: […]
(§3) If the action actually observed (O) is greater than the expected action E then the action of the combination is super-additive, i.e. there is a synergistic effect. In mathematical terms, synergism corresponds to a positive value for the difference of (O-E). In the case of purely complementary addition of activities (expected activity), said difference (O-E) is zero. A negative value of said difference (O-E) signals a loss of activity compared to the expected activity.
(§4) Seeds of a variety of test species are sown in standard soil in pots (Echinochloa crus-galli (ECHCG), Conyza canadensis (ERICA), Amaranthus palmeri (AMAPA), Alopecurus myosuroides (ALOMY), Lolium perenne (LOLPE), and Setaria faberi (SETFA)), and cultivated under controlled conditions in a glasshouse (at 24/16° C., day/night; 14 hours light; 65% humidity), the plants are sprayed with an aqueous spray solution derived from the dissolution of the test compound or composition in acetone and IF50 (11.12% Emulsogen EL360 TM+44.44% N-methylpyrrolidone+44.44% Dowanol DPM glycol ether) which was then diluted to the required concentration using 0.2% Genapol XO80 (CAS No. 9043-30-5) in water as the diluent. Test compounds or compositions are applied at the rates stated. The test plants are then grown in a glasshouse under controlled conditions in a glasshouse (at 24/16° C., day/night; 14 hours light; 65% humidity) and watered twice daily. After 14 days, the test is evaluated for the percentage damage caused to the plant (100=total damage to plant; 0=no damage to plant), and the result are shown below in table B1 to B6.

Setaria faberi (SETFA) = experiment: Post-emergence glasshouse efficacy against Setaria faberi; details: 14 days, alone 3.75 g/Ha
Source text: as §1, §2
If the action actually observed (O) is greater than the expected action E then the action of the combination is super-additive, i.e. there is a synergistic effect. In mathematical terms, synergism corresponds to a positive value for the difference of (O-E). In the case of purely complementary addition of activities (expected activity), said difference (O-E) is zero. A negative value of said difference (O-E) signals a loss of activity compared to the expected activity. […]

[2] = test system: Amaranthus palmeri (AMAPA); experiment: Post-emergence glasshouse efficacy against Amaranthus palmeri; details: 7-8 true leaves, 14 days
Source text: as §1, §2, §3, §4

[3] = test system: Conyza canadensis (ERICA); experiment: Post-emergence glasshouse efficacy against Conyza canadensis; details: 8 cm rosette, 14 days
Source text: as §1, §2, §3, §4

[4] = test system: Echinochloa crus-galli (ECHCG); experiment: Post-emergence glasshouse efficacy against Echinochloa crus-galli; details: 4 true leaves, 14 days
Source text: as §1, §2, §3, §4

Lolium perenne (LOLPE) = experiment: Post-emergence glasshouse efficacy against Lolium perenne; details: 14 days
Source text: as §1, §2, §3, §4

CCOC(=O)C1(C)CC(c2cc(-n3c(=O)cc(C(F)(F)F)n(C)c3=O)c(F)cc2Cl)=NO1 (stereo not drawn) [Compound (Ia)]
inhibition at 30 g/ha ([1]; Alopecurus myosuroides, 336 h, alone 30.0 g/Ha, read-out: Observed Activity (%)): 67.5% | inhibition at 60 g/ha ([1]; Alopecurus myosuroides, 336 h, alone 60.0 g/Ha, read-out: Observed Activity (%)): 97.5% | inhibition at 3.75 g/ha (Setaria faberi (SETFA); Setaria faberi, 336 h, read-out: Observed Activity (%)): 67.5% | inhibition at 0.9375 g/ha ([2]; Amaranthus palmeri, 336 h, alone 0.9375 g/Ha, read-out: Observed Activity (%)): 0% | inhibition at 1.875 g/ha ([2]; Amaranthus palmeri, 336 h, alone 1.875 g/Ha, read-out: Observed Activity (%)): 0% | inhibition at 3.75 g/ha ([2]; Amaranthus palmeri, 336 h, alone 3.75 g/Ha, read-out: Observed Activity (%)): 36.7% | inhibition at 1.875 g/ha ([3]; Erigeron canadensis, 336 h, alone 1.875 g/Ha, read-out: Observed Activity (%)): 20% | inhibition at 3.75 g/ha ([3]; Erigeron canadensis, 336 h, alone 3.75 g/Ha, read-out: Observed Activity (%)): 21.7% | inhibition at 7.5 g/ha ([3]; Erigeron canadensis, 336 h, alone 7.5 g/Ha, read-out: Observed Activity (%)): 48.3% | inhibition at 1.875 g/ha ([4]; Echinochloa crus-galli, 336 h, alone 1.875 g/Ha, read-out: Observed Activity (%)): 6.7% | inhibition at 3.75 g/ha ([4]; Echinochloa crus-galli, 336 h, alone 3.75 g/Ha, read-out: Observed Activity (%)): 29.3% | inhibition at 7.5 g/ha ([4]; Echinochloa crus-galli, 336 h, alone 7.5 g/Ha, read-out: Observed Activity (%)): 73.3% | inhibition at 3.75 g/ha (Lolium perenne (LOLPE); Lolium perenne, 336 h, alone 3.75 g/Ha, read-out: Observed Activity (%)): 12.5% | inhibition at 7.5 g/ha (Lolium perenne (LOLPE); Lolium perenne, 336 h, alone 7.5 g/Ha, read-out: Observed Activity (%)): 42.5% | inhibition at 15 g/ha (Lolium perenne (LOLPE); Lolium perenne, 336 h, alone 15.0 g/Ha, read-out: Observed Activity (%)): 50% | inhibition at 30 g/ha (Lolium perenne (LOLPE); Lolium perenne, 336 h, alone 30.0 g/Ha, read-out: Observed Activity (%)): 93.5%

bicyclopyrone
Observed Activity (%) ([1]; alone 7.5 g/Ha): 47.5% | Observed Activity (%) ([1]; alone 15.0 g/Ha): 60.0% | Observed Activity (%) ([1]; alone 30.0 g/Ha): 60.0% | Observed Activity (%) (Setaria faberi (SETFA)): 22.5% | Observed Activity (%) ([2]; alone 3.75 g/Ha): 0.0% | Observed Activity (%) ([2]; alone 7.5 g/Ha): 30.0% | Observed Activity (%) ([2]; alone 15.0 g/Ha): 45.0% | Observed Activity (%) ([2]; alone 30.0 g/Ha): 18.3% | Observed Activity (%) ([3]; alone 15.0 g/Ha): 65.0% | Observed Activity (%) ([3]; alone 30.0 g/Ha): 71.7% | Observed Activity (%) ([3]; alone 60.0 g/Ha): 70.0% | Observed Activity (%) ([4]; alone 3.75 g/Ha): 21.7% | Observed Activity (%) ([4]; alone 7.5 g/Ha): 46.7% | Observed Activity (%) ([4]; alone 15.0 g/Ha): 56.7% | Observed Activity (%) ([4]; alone 30.0 g/Ha): 61.7% | Observed Activity (%) ([4]; alone 60.0 g/Ha): 63.3% | Observed Activity (%) (Lolium perenne (LOLPE); alone 3.75 g/Ha): 0.0% | Observed Activity (%) (Lolium perenne (LOLPE); alone 7.5 g/Ha): 10.0% | Observed Activity (%) (Lolium perenne (LOLPE); alone 15.0 g/Ha): 25.0% | Observed Activity (%) (Lolium perenne (LOLPE); alone 30.0 g/Ha): 47.5%
